One assay deals with T1, Prunasin hydrolase (Prunus dulcis, UniProt H9ZGE1).
T1 sequence (H9ZGE1 whole entry): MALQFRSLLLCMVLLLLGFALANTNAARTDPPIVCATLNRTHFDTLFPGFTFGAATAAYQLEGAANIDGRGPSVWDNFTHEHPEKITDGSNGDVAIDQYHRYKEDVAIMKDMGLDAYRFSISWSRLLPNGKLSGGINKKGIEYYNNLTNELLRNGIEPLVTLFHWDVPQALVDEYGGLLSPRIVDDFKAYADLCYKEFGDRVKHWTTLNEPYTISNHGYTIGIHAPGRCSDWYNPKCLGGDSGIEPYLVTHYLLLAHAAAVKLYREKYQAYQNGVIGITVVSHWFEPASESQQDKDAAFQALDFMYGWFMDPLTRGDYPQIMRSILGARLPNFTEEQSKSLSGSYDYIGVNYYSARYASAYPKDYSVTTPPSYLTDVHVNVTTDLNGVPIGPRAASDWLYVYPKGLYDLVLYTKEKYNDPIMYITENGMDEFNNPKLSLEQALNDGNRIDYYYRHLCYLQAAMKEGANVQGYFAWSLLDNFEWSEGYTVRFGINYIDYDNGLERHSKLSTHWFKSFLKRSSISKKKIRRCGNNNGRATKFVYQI
Briefly: Inhibition Assay Against Commercial Glycosidases. The note with it: 37 °C. The protocol:
(§1) In a 96-well plates, 10µL of commercial enzyme solutions without (control) or with 20µL of inhibitor were incubated at 37°C for 5 min. After addition of 20µL of substrate solution, incubations were prolonged for different time periods: 10 min for β-glucosidase (almond), 5 min for α-glucosidase (saccharomyces cerevisiae) and 8 min for β-galactosidase (bovine liver) and α-galactosidase (green coffee beans) and stopped by addition of 150µL of glycine/NaOH buffer (100mM, pH 10.6). The amount of 4-MU formed was determined at 355nm (excitation) and 460nm (emission). For β-glucosidase (almond), the activity was determined with 4-MU-β-D-Glu (1mM) in sodium acetate buffer (100 mM, pH 5.2). For α-glucosidase (saccharomyces cerevisiae), the activity was determined with4-methylumbelliferyl-α-D-glucopyranoside (4-MU-α-D-Glu, 1 mM) in sodium phosphate buffer (100 mM, pH 7.2). For β-galactosidase (bovine liver), the activity was determined with 4-me

The target in another assay is Alpha-galactosidase (Coffea arabica, UniProt Q42656). The experiment in a line: Inhibition Assay Against Commercial Glycosidases. The note with it: 37 °C. The protocol:
as §1

A further assay addresses Alpha-glucosidase MAL12 (Saccharomyces cerevisiae (strain ATCC 204508 / S288c), UniProt P53341). The experiment in a line: Inhibition Assay Against Commercial Glycosidases. The note with it: 37 °C. The protocol:
as §1

The next assay concerns the target T2, Beta-galactosidase (Bos taurus, UniProt Q58D55).
T2 sequence (Q58D55 whole entry): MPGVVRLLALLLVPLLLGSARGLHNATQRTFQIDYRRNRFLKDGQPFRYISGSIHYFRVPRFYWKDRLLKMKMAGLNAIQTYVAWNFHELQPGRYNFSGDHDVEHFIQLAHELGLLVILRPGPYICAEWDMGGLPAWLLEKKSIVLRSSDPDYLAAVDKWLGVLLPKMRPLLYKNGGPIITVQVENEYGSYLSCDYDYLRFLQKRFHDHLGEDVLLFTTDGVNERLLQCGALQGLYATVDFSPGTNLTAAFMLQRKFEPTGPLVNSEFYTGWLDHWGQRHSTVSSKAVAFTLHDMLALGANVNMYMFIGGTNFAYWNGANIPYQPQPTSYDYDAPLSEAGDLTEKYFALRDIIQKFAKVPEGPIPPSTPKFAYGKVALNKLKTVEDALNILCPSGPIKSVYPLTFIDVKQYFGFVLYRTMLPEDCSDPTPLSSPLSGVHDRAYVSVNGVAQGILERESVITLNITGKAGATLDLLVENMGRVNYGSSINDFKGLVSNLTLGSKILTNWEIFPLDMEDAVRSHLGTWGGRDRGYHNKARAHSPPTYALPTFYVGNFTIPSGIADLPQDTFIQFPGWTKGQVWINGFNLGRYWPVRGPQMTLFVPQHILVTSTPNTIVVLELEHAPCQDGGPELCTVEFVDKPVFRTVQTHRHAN
The experiment in a line: Inhibition Assay Against Commercial Glycosidases. The conditions noted are these: 37 °C. The method, then:
as §1

For assay [1], the target named is T3, Lysosomal acid glucosylceramidase (Homo sapiens, UniProt P04062).
T3 sequence (P04062 whole entry): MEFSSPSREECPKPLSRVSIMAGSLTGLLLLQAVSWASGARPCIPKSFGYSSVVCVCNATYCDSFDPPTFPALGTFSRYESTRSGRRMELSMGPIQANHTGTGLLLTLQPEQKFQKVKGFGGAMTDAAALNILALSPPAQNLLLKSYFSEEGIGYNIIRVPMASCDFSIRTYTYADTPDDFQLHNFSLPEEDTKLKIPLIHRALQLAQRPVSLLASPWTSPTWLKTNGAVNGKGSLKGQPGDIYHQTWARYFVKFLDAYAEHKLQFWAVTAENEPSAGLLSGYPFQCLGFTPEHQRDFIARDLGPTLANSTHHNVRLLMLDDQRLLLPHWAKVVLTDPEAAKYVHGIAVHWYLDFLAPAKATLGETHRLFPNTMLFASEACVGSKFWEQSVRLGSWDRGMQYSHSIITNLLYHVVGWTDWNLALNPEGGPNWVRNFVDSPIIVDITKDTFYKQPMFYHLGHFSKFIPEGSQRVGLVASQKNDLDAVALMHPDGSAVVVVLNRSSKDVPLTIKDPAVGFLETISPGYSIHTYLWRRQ
The experiment in a line: GCase IC50 Assay.

In assay [2] the target is T3, Lysosomal acid glucosylceramidase. The experiment in a line: GCase Ki Assay. The conditions noted are these: pH 5.2.

pIC50, pKi: −log10 of the molar value.

Alpha-galactosidase, sequence (Q42656 whole entry): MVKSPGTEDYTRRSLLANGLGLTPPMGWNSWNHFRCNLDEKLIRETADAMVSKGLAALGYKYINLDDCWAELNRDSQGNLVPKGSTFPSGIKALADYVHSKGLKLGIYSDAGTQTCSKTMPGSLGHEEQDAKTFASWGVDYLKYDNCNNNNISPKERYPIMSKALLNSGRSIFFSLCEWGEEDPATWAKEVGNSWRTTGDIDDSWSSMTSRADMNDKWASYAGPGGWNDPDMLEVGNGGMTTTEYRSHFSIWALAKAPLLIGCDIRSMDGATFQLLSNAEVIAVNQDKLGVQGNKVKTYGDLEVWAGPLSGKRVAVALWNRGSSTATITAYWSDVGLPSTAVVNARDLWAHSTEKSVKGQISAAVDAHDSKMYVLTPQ
Alpha-glucosidase MAL12, sequence (P53341 whole entry): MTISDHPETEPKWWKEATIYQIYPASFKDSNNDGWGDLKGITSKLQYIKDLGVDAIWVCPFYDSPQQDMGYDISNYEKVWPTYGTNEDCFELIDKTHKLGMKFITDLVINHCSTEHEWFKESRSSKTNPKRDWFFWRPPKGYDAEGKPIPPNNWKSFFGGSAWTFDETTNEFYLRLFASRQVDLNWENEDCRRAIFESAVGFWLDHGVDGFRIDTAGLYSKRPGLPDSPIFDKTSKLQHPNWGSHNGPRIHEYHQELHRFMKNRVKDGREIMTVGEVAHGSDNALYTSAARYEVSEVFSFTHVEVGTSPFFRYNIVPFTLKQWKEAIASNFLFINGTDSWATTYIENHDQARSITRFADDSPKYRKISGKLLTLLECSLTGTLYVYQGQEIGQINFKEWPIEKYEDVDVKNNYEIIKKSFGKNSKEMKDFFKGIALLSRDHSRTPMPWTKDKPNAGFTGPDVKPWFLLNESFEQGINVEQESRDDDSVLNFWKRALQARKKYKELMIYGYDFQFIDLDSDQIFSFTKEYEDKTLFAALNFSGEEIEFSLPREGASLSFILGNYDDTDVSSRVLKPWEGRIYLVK

Take `CC(C)(CCCc1cn2c(n1)C(O)C(O)C(O)C2CO)C(=O)Nc1ccccc1` (centres undefined) [2,2-dimethyl-N-phenyl-5-[6,7,8-trihydroxy-5-(hydroxymethyl)-5H,6H,7H,8H-imidazo[1,2-a]pyridin-2-yl]pentanamide (Compound 11)]: the pIC50 against Prunasin hydrolase was 6.04; against Alpha-galactosidase, 5.33; against Alpha-glucosidase MAL12, 4.89; on Beta-galactosidase, 5.11; in assay [1] (pH 5.2), 7.92; in assay [1] (pH 7), 7.94. In assay [2], this compound had a pKi of 7.72.

As to `COc1ccc(CCCc2cn3c(n2)C(O)C(O)C(O)C3CO)cc1` (centres undefined) [5-(hydroxymethyl)-2-[3-(4-methoxyphenyl)propyl]-5H,6H,7H,8H-imidazo[1,2-a]pyridine-6,7,8-triol (Compound 6)], the pIC50 was 7.11 at Prunasin hydrolase; 5.31 against Alpha-galactosidase; 6.52 against Alpha-glucosidase MAL12; 7.04 against Beta-galactosidase; 8.53 in assay [1] (pH 5.2); 8.44 in assay [1] (pH 7). Also, the pKi in assay [2] was 8.93.

Turning to `CC(C)(C)CCc1cn2c(n1)C(O)C(O)C(O)C2CO` (centres undefined) [2-(3,3-dimethylbutyl)-5-(hydroxymethyl)-5H,6H,7H,8H-imidazo[1,2-a]pyridine-6,7,8-triol (Compound 3)], the pIC50 is 7.10 against Prunasin hydrolase; 4.89 against Alpha-galactosidase; 5.47 on Alpha-glucosidase MAL12; 6.46 at Beta-galactosidase; 8.27 in assay [1] (pH 5.2); 8.37 in assay [1] (pH 7). For the same compound, in assay [2], the pKi was 8.27.

As for `OCC1C(O)C(O)C(O)c2nccn21` (centres undefined) [5-(hydroxymethyl)-5H,6H,7H,8H-imidazo[1,2-a]pyridine-6,7,8-triol (Compound 1)], the pIC50 against Prunasin hydrolase was 6.66; on Alpha-galactosidase, 5.14; on Alpha-glucosidase MAL12, 4.01; against Beta-galactosidase, 6.64; in assay [1] (pH 5.2), 7.04; in assay [1] (pH 7), 7.10. This compound showed a pKi in assay [2] of 7.48.

On to `OCC1C(O)C(O)C(O)c2nc(CCCc3ccc(F)cc3)cn21` (centres undefined) [2-[3-(4-fluorophenyl)propyl]-5-(hydroxymethyl)-5H,6H,7H,8H-imidazo[1,2-a]pyridine-6,7,8-triol (Compound 9)], for which the pIC50 against Prunasin hydrolase is 7.51; against Alpha-galactosidase it was 5.43; against Alpha-glucosidase MAL12, 6.14; against Beta-galactosidase, 6.64; in assay [1] (pH 5.2) it was 8.21; in assay [1] (pH 7) it was 8.32. The compound further showed a pKi in assay [2] of 8.46.

On to `OCC1C(O)C(O)C(O)c2nc(CCCc3ccc(-c4ccccc4)cc3)cn21` (centres undefined) [5-(hydroxymethyl)-2-[3-(4-phenylphenyl)propyl]-5H,6H,7H,8H-imidazo[1,2-a]pyridine-6,7,8-triol (Compound 7)], for which the pIC50 is 7.38 at Prunasin hydrolase; 5.78 on Alpha-galactosidase; 8.22 against Alpha-glucosidase MAL12; 8.28 in assay [1] (pH 5.2); 8.29 in assay [1] (pH 7). The compound further had a pKi in assay [2] of 8.44.

Consider `CCCCCCCCc1cn2c(n1)C(O)C(O)C(O)C2CO` (centres undefined) [5-(hydroxymethyl)-2-octyl-5H,6H,7H,8H-imidazo[1,2-a]pyridine-6,7,8-triol (Compound 4)], for which the pIC50 was 6.93 at Prunasin hydrolase; 4.90 at Alpha-galactosidase; 6.01 against Alpha-glucosidase MAL12; 7.43 at Beta-galactosidase; 8.08 in assay [1] (pH 5.2); 8.30 in assay [1] (pH 7). Also, the pKi in assay [2] was 8.27.

Take `O=C(CCCc1cn2c(n1)C(O)C(O)C(O)C2CO)Nc1ccccc1` (centres undefined) [N-phenyl-4-[6,7,8-trihydroxy-5-(hydroxymethyl)-5H,6H,7H,8H-imidazo[1,2-a]pyridin-2-yl]butanamide (Compound 10)]: the pIC50 against Prunasin hydrolase was 6.85; against Alpha-galactosidase, 5.83; against Alpha-glucosidase MAL12 it was 5.98; against Beta-galactosidase it was 4.93; in assay [1] (pH 5.2), 8.16; in assay [1] (pH 7) it was 8.12. The same compound had a pKi in assay [2] of 8.38.

As to `OCC1C(O)C(O)C(O)c2nc(CCc3ccccc3)cn21` (centres undefined) [5-(hydroxymethyl)-2-(2-phenylethyl)-5H,6H,7H,8H-imidazo[1,2-a]pyridine-6,7,8-triol (Compound 2)], the pIC50 at Prunasin hydrolase is 7.24; against Alpha-galactosidase it was 4.79; against Alpha-glucosidase MAL12 it was 6.24; against Beta-galactosidase, 6.72; in assay [1] (pH 5.2) it was 8.43; in assay [1] (pH 7), 8.69. In addition, the pKi in assay [2] was 8.50.

For `OCC1C(O)C(O)C(O)c2nc(CCCc3ccc(C4CCCCC4)cc3)cn21` (centres undefined) [2-[3-(4-cyclohexylphenyl)propyl]-5-(hydroxymethyl)-5H,6H,7H,8H-imidazo[1,2-a]pyridine-6,7,8-triol (Compound 8)], the pIC50 against Prunasin hydrolase was 8.40; at Alpha-galactosidase, 4.94; against Alpha-glucosidase MAL12, 7.28; against Beta-galactosidase, 9.00; in assay [1] (pH 5.2), 8.07; in assay [1] (pH 7), 8.11. This compound also had a pKi in assay [2] of 8.71.

As to `Cc1ccc(CCCc2cn3c(n2)C(O)C(O)C(O)C3CO)cc1` (centres undefined) [5-(hydroxymethyl)-2-[3-(4-methylphenyl)propyl]-5H,6H,7H,8H-imidazo[1,2-a]pyridine-6,7,8-triol (Compound 5)], the pIC50 at Prunasin hydrolase was 7.38; against Alpha-galactosidase it was 5.35; against Alpha-glucosidase MAL12, 6.55; on Beta-galactosidase, 7.00; in assay [1] (pH 5.2), 8.26; in assay [1] (pH 7), 8.33. Also, the pKi in assay [2] is 8.84.

Turning to `CCCCCCCCCN1C[C@H](O)[C@@H](O)[C@H](O)[C@H]1CO`, the pIC50 against Prunasin hydrolase is 4.02; against Alpha-galactosidase it was 5.02; at Alpha-glucosidase MAL12, below 4.00.

The term pIC50 denotes −log10 of the IC50, conventionally taken in molar units. Read a low pIC50 as a large IC50. What is called pKi is the Ki on a negative log10 scale, so that one unit is a factor of ten.

These data come from BindingDB's records for doi:10.1002/cbic.201300197 (Nankai University, 2013).
